Among the data in patent publication US8013156B2 (Exelixis, Inc., priority 2003, dated 2011) are IC50 values, retold here.

The assay has as its target Tie-2 (Homo sapiens, UniProt Q02763). The assay can be described thus: Tie-2 tyrosine kinase activity assay (luciferase/luciferin ATP consumption with pEY substrate, or 33P-ATP incorporation). The class given is biochemical. As to conditions: human enzyme Tie-2. The method in brief: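 Values are IC50 categories (A <50 nM to D ≥10,000 nM), with Ki obtainable by fitting rates to a tight-binding model. Assay formats: 33P-ATP phosphate transfer to adsorbed generic substrate counted by scintillation, or luciferase-detected ATP depletion using pEY.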

Chain of Tie-2 (Q02763 23-1124): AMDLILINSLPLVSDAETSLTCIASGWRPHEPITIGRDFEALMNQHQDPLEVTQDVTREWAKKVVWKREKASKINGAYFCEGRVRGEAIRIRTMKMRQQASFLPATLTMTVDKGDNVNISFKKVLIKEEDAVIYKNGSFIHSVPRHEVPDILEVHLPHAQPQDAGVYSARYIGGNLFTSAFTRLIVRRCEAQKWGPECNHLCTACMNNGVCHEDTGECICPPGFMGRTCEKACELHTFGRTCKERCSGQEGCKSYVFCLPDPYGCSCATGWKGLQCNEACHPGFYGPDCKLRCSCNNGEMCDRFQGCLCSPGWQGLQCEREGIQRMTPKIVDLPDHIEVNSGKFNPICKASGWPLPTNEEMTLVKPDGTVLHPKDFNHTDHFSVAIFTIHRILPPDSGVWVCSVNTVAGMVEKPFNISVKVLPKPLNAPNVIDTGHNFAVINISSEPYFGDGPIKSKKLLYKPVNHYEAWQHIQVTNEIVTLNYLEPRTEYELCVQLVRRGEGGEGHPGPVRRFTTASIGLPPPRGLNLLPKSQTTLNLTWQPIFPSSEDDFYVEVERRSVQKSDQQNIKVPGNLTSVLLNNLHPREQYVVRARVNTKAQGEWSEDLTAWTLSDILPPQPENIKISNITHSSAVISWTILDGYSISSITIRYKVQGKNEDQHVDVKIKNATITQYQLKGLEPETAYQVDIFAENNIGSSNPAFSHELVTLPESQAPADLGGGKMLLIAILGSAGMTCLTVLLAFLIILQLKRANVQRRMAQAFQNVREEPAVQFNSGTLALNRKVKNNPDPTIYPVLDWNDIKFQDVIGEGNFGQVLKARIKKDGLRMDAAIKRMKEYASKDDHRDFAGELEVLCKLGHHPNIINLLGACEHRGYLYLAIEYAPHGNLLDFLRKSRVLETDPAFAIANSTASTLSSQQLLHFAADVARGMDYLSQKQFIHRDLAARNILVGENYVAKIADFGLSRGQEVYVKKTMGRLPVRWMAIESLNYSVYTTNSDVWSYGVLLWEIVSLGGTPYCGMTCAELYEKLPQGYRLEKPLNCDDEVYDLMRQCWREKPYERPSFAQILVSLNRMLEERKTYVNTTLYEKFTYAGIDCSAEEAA

The term IC50 denotes the concentration at which inhibition is half-maximal. Read a high IC50 as weaker potency. With `O=C(Nc1nccc(COc2nsnc2N2CCN(C(=O)Nc3cc(C(F)(F)F)cc(C(F)(F)F)c3)CC2)n1)OCCN1CCCCC1` [Example 163, 2-piperidin-1-ylethyl {4-[({4-[4-({[3,5-bis(trifluoromethyl)phenyl]amino}carbonyl)piperazin-1-yl]-1,2,5-thiadiazol-3-yl}oxy)methyl]pyrimidin-2-yl}carbamate], the concentration for half-maximal inhibition (IC50) is 0.05 to 1 µM.
To `COC(=O)Nc1cc(COc2cccnc2N2CCN(C(=O)Nc3cccc(Br)c3)CC2)ccn1` [Example 164, methyl [4-({[2-(4-{[(3-bromophenyl)amino]carbonyl}piperazin-1-yl)pyridin-3-yl]oxy}methyl)pyridin-2-yl]carbamate] belongs less than 0.05 µM; to `COC(=O)Nc1cc(COc2cccnc2N2CCN(C(=O)Nc3cccc(OC)c3)CC2)ccn1` [Example 165, methyl {4-[({2-[4-({[3-(methyloxy)phenyl]amino}carbonyl)piperazin-1-yl]pyridin-3-yl}oxy)methyl]pyridin-2-yl}carbamate], 0.05 to 1 µM.
`COc1cccc(NC(=O)N2CCN(c3ncccc3OCc3ccnc(N)n3)CC2)c1` [Example 166, 4-(3-{[(2-aminopyrimidin-4-yl)methyl]oxy}pyridin-2-yl)-N-[3-(methyloxy)phenyl]piperazine-1-carboxamide] came in with an IC50 of 0.05 to 1 µM.
To `CC(C)c1cccc(NC(=O)N2CCN(c3ncccc3OCc3ccnc(N)n3)CC2)c1` [Example 167, 4-(3-{[(2-aminopyrimidin-4-yl)methyl]oxy}pyridin-2-yl)-N-[3-(1-methylethyl)phenyl]piperazine-1-carboxamide] belongs less than 0.05 µM.
Next, `Nc1nccc(COc2cccnc2N2CCN(C(=O)Nc3cccc(OC(F)(F)F)c3)CC2)n1` [Example 168, 4-(3-{[(2-aminopyrimidin-4-yl)methyl]oxy}pyridin-2-yl)-N-{3-[(trifluoromethyl)oxy]phenyl}piperazine-1-carboxamide]: less than 0.05 µM; `Nc1nccc(COc2cccnc2N2CCN(C(=O)Nc3cc(C(F)(F)F)ccc3F)CC2)n1` [Example 169, 4-(3-{[(2-aminopyrimidin-4-yl)methyl]oxy}pyridin-2-yl)-N-[2-fluoro-5-(trifluoromethyl)phenyl]piperazine-1-carboxamide]: less than 0.05 µM; `CCc1cccc(NC(=O)Nc2cc(COc3cccnc3N3CCN(C(=O)Nc4cccc(CC)c4)CC3)ccn2)c1` [Example 170, N-(3-ethylphenyl)-4-[3-({[2-({[(3-ethylphenyl)amino]carbonyl}amino)pyridin-4-yl]methyl}oxy)pyridin-2-yl]piperazine-1-carboxamide]: less than 0.05 µM.
To `CCc1cccc(NC(=O)N2CCN(c3ncccc3OCc3ccnc(NC(=O)CN4CCN(C)CC4)c3)CC2)c1` [Example 171, N-(3-ethylphenyl)-4-(3-{[(2-{[(4-methylpiperazin-1-yl)acetyl]amino}pyridin-4-yl)methyl]oxy}pyridin-2-yl)piperazine-1-carboxamide] belongs less than 0.05 µM.
Turning to `CCc1cccc(NC(=O)N2CCN(c3nsnc3OCc3ccnc(NC(=O)CN4CCN(C)CC4)c3)CC2)c1` [Example 172, N-(3-ethylphenyl)-4-(4-{[(2-{[(4-methylpiperazin-1-yl)acetyl]amino}pyridin-4-yl)methyl]oxy}-1,2,5-thiadiazol-3-yl)piperazine-1-carboxamide], the IC50 was less than 0.05 µM.
To `CN1CCN(CC(=O)Nc2cc(COc3cccnc3N3CCN(C(=O)Nc4cc(C(F)(F)F)cc(C(F)(F)F)c4)CC3)ccn2)CC1` [Example 173, N-[3,5-bis(trifluoromethyl)phenyl]-4-(3-{[(2-{[(4-methylpiperazin-1-yl)acetyl]amino}pyridin-4-yl)methyl]oxy}pyridin-2-yl)piperazine-1-carboxamide] belongs less than 0.05 µM.
The compound `Nc1nccc(COc2cccnc2N2CCN(C(=O)Nc3cccc(C(F)(F)F)c3)CC2)n1` [Example 174, 4-(3-{[(2-aminopyrimidin-4-yl)methyl]oxy}pyridin-2-yl)-N-[3-(trifluoromethyl)phenyl]piperazine-1-carboxamide] yielded a concentration for half-maximal inhibition (IC50) of less than 0.05 µM.
Next, `CCc1cc(NC(=O)N2CCN(c3ncccc3OCc3ccnc(N)n3)CC2)ccc1F` [Example 176, 4-(3-{[(2-aminopyrimidin-4-yl)methyl]oxy}pyridin-2-yl)-N-(3-ethyl-4-fluorophenyl)piperazine-1-carboxamide]: less than 0.05 µM.
`Nc1nccc(COc2cccnc2N2CCN(CC(=O)Nc3cc(C(F)(F)F)cc(C(F)(F)F)c3)CC2)n1` [Example 177, 2-[4-(3-{[(2-aminopyrimidin-4-yl)methyl]oxy}pyridin-2-yl)piperazin-1-yl]-N-[3,5-bis(trifluoromethyl)phenyl]acetamide] returned an IC50 of 1 to 10 µM.
To `Nc1nccc(COc2cccnc2N2CCN(C(=O)Nc3ccccc3)CC2)n1` [Example 178, 4-(3-{[(2-aminopyrimidin-4-yl)methyl]oxy}pyridin-2-yl)-N-phenylpiperazine-1-carboxamide] belongs 1 to 10 µM; to `CCc1cc(Cl)cc(NC(=O)N2CCN(c3ncccc3OCc3ccnc(N)n3)CC2)c1` [Example 179, 4-(3-{[(2-aminopyrimidin-4-yl)methyl]oxy}pyridin-2-yl)-N-(3-chloro-5-ethylphenyl)piperazine-1-carboxamide], less than 0.05 µM; to `CCc1ccc(F)c(NC(=O)N2CCN(c3ncccc3OCc3ccnc(N)n3)CC2)c1` [Example 180, 4-(3-{[(2-aminopyrimidin-4-yl)methyl]oxy}pyridin-2-yl)-N-(5-ethyl-2-fluorophenyl)piperazine-1-carboxamide], less than 0.05 µM.
To `CCc1cc(Br)cc(NC(=O)N2CCN(c3ncccc3OCc3ccnc(N)n3)CC2)c1` [Example 181, 4-(3-{[(2-aminopyrimidin-4-yl)methyl]oxy}pyridin-2-yl)-N-(3-bromo-5-ethylphenyl)piperazine-1-carboxamide] belongs less than 0.05 µM; to `CCc1cccc(NC(=O)N2CCN(c3ncccc3OCc3ccnc(NC(=O)OCCN4CCN(C)CC4)c3)CC2)c1` [Example 182, 2-(4-methylpiperazin-1-yl)ethyl [4-({[2-(4-{[(3-ethylphenyl)amino]carbonyl}piperazin-1-yl)pyridin-3-yl]oxy}methyl)pyridin-2-yl]carbamate], less than 0.05 µM.
Turning to `Nc1nccc(COc2cccnc2N2CCN(C(=O)Nc3cccc(Cl)c3)CC2)n1` [Example 183, 4-(3-{[(2-aminopyrimidin-4-yl)methyl]oxy}pyridin-2-yl)-N-(3-chlorophenyl)piperazine-1-carboxamide], the IC50 is 0.05 to 1 µM.
To `Nc1nccc(COc2cccnc2N2CCN(C(=O)Nc3cccc(Br)c3)CC2)n1` [Example 184, 4-(3-{[(2-aminopyrimidin-4-yl)methyl]oxy}pyridin-2-yl)-N-(3-bromophenyl)piperazine-1-carboxamide] belongs less than 0.05 µM; to `CC(=O)N1CCN(c2ncccc2OCc2ccnc(NC(=O)CN3CCN(C)CC3)c2)CC1` [Example 185, N-[4-({[2-(4-acetylpiperazin-1-yl)pyridin-3-yl]oxy}methyl)pyridin-2-yl]-2-(4-methylpiperazin-1-yl)acetamide], not below 10 µM; to `Nc1nccc(COc2cccnc2N2CCN(C(=O)Nc3cccc(F)c3)CC2)n1` [Example 186, 4-(3-{[(2-aminopyrimidin-4-yl)methyl]oxy}pyridin-2-yl)-N-(3-fluorophenyl)piperazine-1-carboxamide], 0.05 to 1 µM.
